The text below walks through data of the NIST ThermoML archive (doi:10.1016/j.jct.2016.04.002).

The conditions of data set [1]: Crystal; DTA.
Data set [2] can be described thus: Molar enthalpy of transition or fusion. The settings on record: Crystal; DSC.

Numbers after ± are expanded uncertainties.

With `O=C(O)[C@]1(O)C[C@@H](O)[C@@H](O)[C@H](O)C1`, the Normal melting temperature in data set [1] turned out to be 167.01 ± 1.1 °C. In data set [2], the “Molar enthalpy of transition or fusion” value was 50.5 ± 2.2 kJ/mol.
